For this assay, the target named is Dopamine receptor (Bos taurus) (UniProt Q95136+P20288). The assay can be described thus: Ability to enhance the binding of [3H]- ADTN to dopamine receptor from freshly dissected bovine caudate. The format is protein assay.

`NC(=O)[C@H]1CS[C@@H]2CC[C@@H](NC(=O)C3CCCN3)C(=O)N12` (some centres not stated): the Enhancement is 75%.
To `NC(=O)[C@H]1CS[C@@H]2C[C@@H](NC(=O)C3CCCN3)C(=O)N12` (some centres not stated) belongs 200%.

(Values after ChEMBL document CHEMBL1126764, “Bicyclic thiazolidine lactam peptidomimetics of the dopamine receptor modulating peptide Pro-Leu-Gly-NH2” (J Med Chem, 1993).)
